US9730447B2, “Fungicidal amides” (E I DU PONT DE NEMOURS AND COMPANY, priority 2013, dated 2017)
Marks after values point to notes of the source that are not given here.

Assays:
Assay type in all cases: in vivo
[1] = tested on: Puccinia recondite f. sp. tritici; assay: Test D: preventive spray on wheat seedlings, Puccinia recondite f. sp. tritici (wheat leaf rust), visual disease rating
Excerpt: (§1) General protocol for preparing test suspensions for Tests A-E: the test compounds were first dissolved in acetone in an amount equal to 3% of the final volume and then suspended at the desired concentration (in ppm) in acetone and purified water (50/50 mix by volume) containing 250 ppm of the surfactant Trem® 014 (polyhydric alcohol esters). The resulting test suspensions were then used in Tests A-E. Compounds were sprayed with either a 40 ppm or 10 ppm (*) test suspension to the point of run-off on the test plants which is the equivalent of a rate of 160 g ai/ha or 40 g ai/ha, respectively.
The test suspension was sprayed to the point of run-off on wheat seedlings. The following day the seedlings were inoculated with a spore suspension of Puccinia recondite f. sp. tritici; (the causal agent of wheat leaf rust) and incubated in a saturated atmosphere at 20° C. for 24 h, and then moved to a growth chamber at 20° C. for 6 days, after which time visual disease ratings were made.
(§2) Results for Tests A-E are given in Table A. In the Table, a rating of 100 indicates 100% disease control and a rating of 0 indicates no disease control (relative to the controls). A dash (-) indicates no test results.

[2] = tested on: Septoria tritici; assay: Test C: preventive spray on wheat seedlings, Septoria tritici (wheat leaf blotch), visual disease rating
Excerpt: as §1
The test suspension was sprayed to the point of run-off on wheat seedlings. The following day the seedlings were inoculated with a spore suspension of Septoria tritici (the causal agent of wheat leaf blotch) and incubated in a saturated atmosphere at 24° C. for 48 h, and then moved to a growth chamber at 20° C. for 21 days, after which time visual disease ratings were made.
as §2

[3] = tested on: Stagonospora nodorum (also known as Septoria nodorum); assay: Test B: preventive spray on wheat seedlings, Stagonospora nodorum (wheat glume blotch), visual disease rating
Excerpt: as §1
The test suspension was sprayed to the point of run-off on wheat seedlings. The following day the seedlings were inoculated with a spore suspension of Stagonospora nodorum (also known as Septoria nodorum; the causal agent of wheat glume blotch) and incubated in a saturated atmosphere at 20° C. for 48 h, and then moved to a growth chamber at 20° C. for 6 days, after which time visual disease ratings were made.
as §2

[4] = tested on: Erysiphe graminis f. sp. tritici; assay: Test E: preventive spray on wheat seedlings, Erysiphe graminis f. sp. tritici (wheat powdery mildew), visual disease rating
Excerpt: as §1
The test suspension was sprayed to the point of run-off on wheat seedlings. The following day the seedlings were inoculated with a spore dust of Erysiphe graminis f. sp. tritici, (the causal agent of wheat powdery mildew) and incubated in a growth chamber at 20° C. for 8 days, after which time visual disease ratings were made.
as §2

[5] = 100 = 100% disease control, 0 = no control, unmarked values
[6] = values marked with asterisk (*), meaning not given

Compound | Test D disease control rating [1, 5] [%] | Test C disease control rating [2, 5] [%] | Test B disease control rating [3, 5] [%] | Test E disease control rating [4, 5] [%] | Test D disease control rating [1, 6] | Test C disease control rating [2, 6] | Test E disease control rating [4, 6] | Test B disease control rating [3, 6]
O=C(Nc1ccccc1-c1cnc(-n2ccc(C(F)(F)F)n2)c(F)c1)c1nccnc1Cl [compound 149] | 99 | 97 | 95 | 98 |  |  |  | 
O=C(Nc1ccccc1-c1cnc(-n2ccc(C(F)(F)F)n2)c(Cl)c1)c1occc1Br [compound 117] |  |  |  |  | 99* % | 99* % | 64* % | 
CCOC(=O)C1(C)CC(c2ccc(-c3ccccc3NC(=O)c3ncccc3C(F)(F)F)cn2)=NO1 (racemic) [compound 144] | 68 | 81 | 0 | 0 |  |  |  | 
Cc1oncc1C(=O)Nc1ccccc1-c1cnc(-n2ccc(C(F)(F)F)n2)c(Cl)c1 [compound 128] |  |  |  |  | 67* % | 42* % | 13* % | 
N#Cc1cc(-c2ccccc2NC(=O)c2sccc2I)cnc1-n1ccc(C(F)(F)F)n1 [compound 143] |  |  |  |  | 100* % | 100* % | 64* % | 
O=C(NCCc1ncc(-n2ccc(Br)n2)cn1)c1ncccc1C(F)(F)F [Compound 179] |  |  | 0 |  | 0* % | 5* % | 0* % | 
O=C(NCCc1ncc(-n2ccc(C(F)(F)F)n2)cn1)c1ccccc1C(F)(F)F [Compound 177] | 0 | 91 |  | 79 |  |  |  | 
O=C(Nc1ccccc1-c1cnc(-n2ccc(C(F)(F)F)n2)c(Cl)c1)c1cccs1 [compound 111] |  |  |  |  | 84* % | 63* % | 0* % | 
Cc1ccsc1C(=O)Nc1ccccc1-c1cnc(-n2ccc(C(F)(F)F)n2)c(C#N)c1 [compound 154] |  |  |  |  | 100* % | 94* % | 0* % | 59* %
Cn1cc(C(=O)Nc2ccccc2-c2cnc(-n3ccc(C(F)(F)F)n3)c(C#N)c2)c(C(F)(F)F)n1 [compound 127] |  |  | 0 |  | 100* % | 62* % | 40* % | 
CCOC(=O)C1CC(c2ccc(-c3ccccc3NC(=O)c3cn(C)nc3C(F)F)cn2)=NO1 (stereo not drawn) [compound 110] | 68 | 22 |  | 0 |  |  |  | 
Cc1ccn(-c2cnc(CCNC(=O)c3ncccc3C(F)(F)F)nc2)n1 [Compound 178] |  |  |  |  | 0* % | 0* % | 0* % | 3* %
Cn1cc(C(=O)Nc2ccccc2-c2cnc(-n3ccc(C(F)(F)F)n3)c(F)c2)c(C(F)(F)F)n1 [compound 150] | 100 | 98 | 92 | 99 |  |  |  | 
Cc1occc1C(=O)Nc1ccccc1-c1cnc(-n2ccc(C(F)(F)F)n2)c(Cl)c1 [compound 118] |  |  |  |  | 68* % | 42* % | 0* % | 
Cn1cc(C(=O)Nc2ccccc2-c2cnc(-n3ccc(C(F)F)n3)c(F)c2)c(C(F)F)n1 [compound 162] | 100 | 98 | 68 | 99 |  |  |  | 
O=C(Nc1ccccc1-c1ccc(-n2cc(Br)cn2)nc1)c1ncccc1C(F)(F)F [compound 14] | 99 | 100 | 100 | 98 |  |  |  | 

Compound | Test D disease control rating [1, 5] [%] | Test C disease control rating [2, 5] [%] | Test B disease control rating [3, 5] [%] | Test E disease control rating [4, 5] [%] | Test D disease control rating [1, 6] | Test C disease control rating [2, 6] | Test E disease control rating [4, 6] | Test B disease control rating [3, 6]
COc1cccc(C2CC(c3ccc(-c4ccccc4NC(=O)c4cn(C)nc4C(F)F)cn3)=NO2)c1 (stereo not drawn) [compound 102] | 100 | 97 | 99 | 73 |  |  |  | 
O=C(Nc1ccccc1-c1cnc(-n2ccc(C(F)(F)F)n2)c(Cl)c1)c1ccsc1Br [compound 139] |  |  |  |  | 100* % | 98* % | 40* % | 
Cn1cc(C(=O)Nc2ccccc2-c2cnc(-n3cnc(C(F)(F)F)c3)c(F)c2)c(C(F)F)n1 [compound 153] |  |  |  |  | 99* % | 99* % | 40* % | 
Cc1ncsc1C(=O)Nc1ccccc1-c1cnc(-n2ccc(C(F)(F)F)n2)c(Cl)c1 [compound 164] |  |  |  |  | 91* % | 96* % | 69* % | 
Cc1nc(C(F)(F)F)c(C(=O)Nc2ccccc2-c2cnc(-n3ccc(C(F)(F)F)n3)c(C#N)c2)s1 [compound 107] | 99 |  |  | 43 |  |  |  | 
CCOC(=O)C1(C)CC(c2ccc(-c3ccccc3NC(=O)c3cn(C)nc3C(F)F)cn2)=NO1 (stereo not drawn) [compound 109] | 74 | 66 |  | 0 |  |  |  | 
Cn1cc(C(=O)Nc2ccccc2-c2cnc(-n3ccc(C(F)(F)F)n3)c(C#N)c2)c(C(F)F)n1 [compound 106] | 100 |  |  | 98 |  |  |  | 
Cc1sccc1C(=O)Nc1ccccc1-c1cnc(-n2ccc(C(F)(F)F)n2)c(Cl)c1 [compound 138] |  |  |  |  | 100* % | 99* % | 64* % | 
CSc1ccsc1C(=O)Nc1ccccc1-c1cnc(-n2ccc(C(F)(F)F)n2)c(Cl)c1 [compound 141] |  |  |  |  | 97* % | 76* % | 0* % | 
N#Cc1cc(-c2ccccc2NC(=O)c2nccnc2Cl)cnc1-n1ccc(C(F)(F)F)n1 [compound 108] | 96 |  |  | 87 |  |  |  | 
Cc1cc(C)c(C(=O)Nc2ccccc2-c2cnc(-n3ccc(C(F)(F)F)n3)c(Cl)c2)s1 [compound 116] |  |  |  |  | 99* % | 99* % | 64* % | 
Cn1ncnc1C(=O)Nc1ccccc1-c1cnc(-n2ccc(C(F)(F)F)n2)c(Cl)c1 [compound 129] |  |  |  |  | 17* % | 88* % | 0* % | 
O=C(Nc1ccccc1-c1cnc(-n2ccc(C(F)(F)F)n2)c(Cl)c1)c1ccsc1 [compound 112] |  |  |  |  | 0* % | 77* % | 0* % | 
O=C(Nc1ccccc1-c1cnc(-n2ccc(C(F)(F)F)n2)c(Cl)c1)c1ccsc1Cl [compound 120] |  |  |  |  | 100* % | 98* % | 0* % | 
CSc1sccc1C(=O)Nc1ccccc1-c1cnc(-n2ccc(C(F)(F)F)n2)c(Cl)c1 [compound 142] |  |  |  |  | 97* % | 88* % | 0* % | 
N#Cc1cc(-c2ccccc2NC(=O)c2ncccc2C(F)(F)F)cnc1-n1ccc(C(F)(F)F)n1 [compound 105] | 100 |  |  | 81 |  |  |  | 
